# Measured values reported in publication PMC4811591, “Role of the Substrate Specificity-Defining Residues of Human SIRT5 in Modulating the Structural Stability and Inhibitory Features of the Enzyme” (PLoS ONE, 2016).
# Positions count from the first letter of the chain named.
# Legend:
# [1] = target: T1, SIRT5 wild type (Homo sapiens, UniProt Q9NXA8); test: SIRT5 wild type desuccinylation reaction, trypsin coupled fluorescence assay with Ac-SucLys-AMC; type: biochemical; details: for IC50: SIRT5 desuccinylation
# T1 construct: SIRT1 (193–747) and SIRT5 (51–301) were cloned into the pLIC-His expression vector; His tag (pLIC-His vector); made in house; host or cells: E. coli BL21(DE3) Star
# T1 sequence (Q9NXA8 51-301): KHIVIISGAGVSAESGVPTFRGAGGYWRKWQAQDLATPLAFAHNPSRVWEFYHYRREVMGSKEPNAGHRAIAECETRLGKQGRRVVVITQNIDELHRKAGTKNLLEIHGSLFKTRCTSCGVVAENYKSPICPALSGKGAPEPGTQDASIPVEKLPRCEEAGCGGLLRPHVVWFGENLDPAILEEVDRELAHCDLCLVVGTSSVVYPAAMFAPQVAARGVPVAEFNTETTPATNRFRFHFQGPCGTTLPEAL
# Description: (§1) The sirtuin catalyzed deacetylase and desuccinylase reactions were measured via the trypsin coupled assay system as described by Madsen et al. […] Since trypsin was used as a coupling enzyme, its concentration was optimized to ensure the emergence of minimal or negligible lag-phase prior to the onset of the steady state phase. […] The steady state rates of the enzyme catalyzed reactions were derived from the time dependent changes in the fluorescence signal, and the data were analyzed by the ternary complex kinetic mechanism (Eq 4) via Grafit 4 software.
# (§2) The steady-state kinetic data were fitted globally by the competitive, mixed, and noncompetitive inhibition models using the DYNAFIT software based on the rapid-equilibrium approximation. All the parameters were allowed to float except for the enzyme concentration. The software utilizes several model-discrimination criteria, including the second order Akaike Information Criterion (AIC), so that the best model out of the three different candidates could be identified.
# (§3) Other reaction conditions were the same as described above. The data were fitted by Eq 5 by Grafit 4.0.
# [2] = target: T2, SIRT5 Y102A (Homo sapiens, UniProt Q9NXA8, Y102A); test: SIRT5 Y102A deacetylation reaction, trypsin coupled assay with Fluor-de-lys; type: biochemical
# T2 construct: SIRT1 (193–747) and SIRT5 (51–301) were cloned into the pLIC-His expression vector; His tag (pLIC-His vector); made in house; host or cells: E. coli BL21(DE3) Star
# T2 sequence (Q9NXA8 51-301 Y102A): T1 sequence (Q9NXA8 51-301) with Y52A
# Description: as §1, §2, §3
# [3] = target: T2, SIRT5 Y102A; test: SIRT5 Y102A desuccinylation reaction, trypsin coupled assay with Ac-SucLys-AMC; type: biochemical
# Description: as §1, §2, §3
# [4] = target: T3, SIRT5 R105I (Homo sapiens, UniProt Q9NXA8, R105I); test: SIRT5 R105I deacetylation reaction, trypsin coupled assay with Fluor-de-lys; type: biochemical
# T3 construct: SIRT1 (193–747) and SIRT5 (51–301) were cloned into the pLIC-His expression vector; His tag (pLIC-His vector); made in house; host or cells: E. coli BL21(DE3) Star
# T3 sequence (Q9NXA8 51-301 R105I): T1 sequence (Q9NXA8 51-301) with R55I
# Description: as §1, §2, §3
# [5] = target: T4, SIRT5 Y102A/R105I (Homo sapiens, UniProt Q9NXA8, R105I/Y102A); test: SIRT5 Y102A/R105I deacetylation reaction, trypsin coupled assay with Fluor-de-lys; type: biochemical
# T4 construct: SIRT1 (193–747) and SIRT5 (51–301) were cloned into the pLIC-His expression vector; His tag (pLIC-His vector); made in house; host or cells: E. coli BL21(DE3) Star
# T4 sequence (Q9NXA8 51-301 Y102A/R105I): T1 sequence (Q9NXA8 51-301) with Y52A, R55I
# Description: as §1, §2, §3
# [6] = target: T5, SIRT1 (Homo sapiens, UniProt Q96EB6); test: SIRT1 deacetylation reaction, trypsin coupled assay with Fluor-de-lys; type: biochemical; details: for IC50: SIRT1 deacetylation
# T5 construct: SIRT1 (193–747) and SIRT5 (51–301) were cloned into the pLIC-His expression vector; His tag (pLIC-His vector); made in house; host or cells: E. coli BL21(DE3) Star
# T5 sequence (Q96EB6 193-747): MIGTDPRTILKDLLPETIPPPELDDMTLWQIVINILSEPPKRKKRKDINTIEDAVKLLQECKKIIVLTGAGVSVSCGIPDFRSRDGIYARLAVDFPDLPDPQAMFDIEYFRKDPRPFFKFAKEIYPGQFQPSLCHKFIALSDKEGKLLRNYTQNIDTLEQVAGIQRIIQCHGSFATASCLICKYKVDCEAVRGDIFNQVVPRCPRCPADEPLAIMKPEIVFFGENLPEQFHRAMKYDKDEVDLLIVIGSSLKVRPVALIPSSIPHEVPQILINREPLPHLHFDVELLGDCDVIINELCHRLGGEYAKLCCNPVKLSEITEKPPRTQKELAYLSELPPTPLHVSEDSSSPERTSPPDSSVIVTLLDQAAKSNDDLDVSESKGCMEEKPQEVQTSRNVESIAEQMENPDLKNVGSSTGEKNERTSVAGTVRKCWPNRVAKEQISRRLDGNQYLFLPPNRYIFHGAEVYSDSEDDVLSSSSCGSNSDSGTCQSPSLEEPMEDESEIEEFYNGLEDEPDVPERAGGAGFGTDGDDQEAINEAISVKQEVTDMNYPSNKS
# Description: as §1, §2, §3
# [7] = target: T6, SIRT5-substrate complex (Homo sapiens, UniProt Q9NXA8); test: Isothermal titration calorimetry, binding of nicotinamide to SIRT5-substrate complex; details: ITC, 20 μM SIRT5 in the presence of 1 mM Ac-Suclys-AMC
# T6 construct: SIRT1 (193–747) and SIRT5 (51–301) were cloned into the pLIC-His expression vector; His tag (pLIC-His vector); made in house; host or cells: E. coli BL21(DE3) Star
# T6 sequence (Q9NXA8 51-301): T1 sequence (Q9NXA8 51-301)
# Description: (§4) Isothermal titration calorimetric experiment was performed in duplicates on a VP-ITC device (Microcal Inc., Northampton, MA). Prior to the titration experiment, both enzyme and inhibitor were thoroughly degassed under vacuum. […] The data were analyzed by the ITC data analysis module of Origin Software using the single-site binding model as described by Wiseman et al. All the parameters were allowed to vary during the curve-fitting. […] The binding free energy (ΔG°) and the entropic (ΔS°) changes were calculated by Eqs 6 and 7, respectively ΔG°=−RTlnKa (6) ΔS°=ΔH°−ΔG°/T (7)
# (TIF) Click here for additional data file.
# [8] = target: T1, SIRT5 wild type; test: SIRT5 wild type deacetylation reaction, trypsin coupled fluorescence assay with Fluor-de-lys; type: biochemical; details: 50 μM EX527; substrate not stated in the sentence (method: 100 μM Fluor-de-lys, 500 μM NAD^+)
# Description: (§5) The sirtuin catalyzed deacetylase and desuccinylase reactions were measured via the trypsin coupled assay system as described by Madsen et al. The enzyme reactions were carried out at 25°C in 50 mM Tris-HCl assay buffer, pH 8.0, containing 137 mM NaCl, 2.7 mM KCl, 1 mM MgCl2, and 1 mg/mL bovine serum albumin. Since trypsin was used as a coupling enzyme, its concentration was optimized to ensure the emergence of minimal or negligible lag-phase prior to the onset of the steady state phase. The bi-substrate kinetic experiments were performed by varying the concentrations of NAD^+ (from 100 to 500 μM) and Ac-SucLys-AMC or Fluor-de-lys® substrates (from 100 μM to 1200 μM) using 0.8 μM trypsin as the coupling enzyme. The steady state rates of the enzyme catalyzed reactions were derived from the time dependent changes in the fluorescence signal, and the data were analyzed by the ternary complex kinetic mechanism (Eq 4) via Grafit 4 software.
# (§6) The steady-state kinetic data were fitted globally by the competitive, mixed, and noncompetitive inhibition models using the DYNAFIT software based on the rapid-equilibrium approximation. All the parameters were allowed to float except for the enzyme concentration. […]
# [9] = target: T3, SIRT5 R105I; test: SIRT5 R105I desuccinylation reaction, trypsin coupled assay with Ac-SucLys-AMC; type: biochemical
# Description: as §5, §6
# [10] = target: T4, SIRT5 Y102A/R105I; test: Isothermal titration calorimetry, binding of EX527 to SIRT5 Y102A/R105I; details: ITC
# Description: as §4, with “vacuum. The sample cell was filled with 1.8 mL (effective volume = 1.4 mL) of 20 μM Y102A/R105I mutant SIRT5 and 0 or 10 mM NAD^+ in 50 mM HEPES buffer, pH 7.5, containing 100 mM NaCl, 10% glycerol and 1 mM TCEP.” for “vacuum.”
# The latter value translates to the ΔG° of binding as being equal to −7.3 ± 0.1 kcal/mol. Given the ΔH° and ΔG° values, the TΔS° was calculated to be 2.03 kcal/mol.
# [11] = target: T7, wild type SIRT5 (Homo sapiens, UniProt Q9NXA8); test: Isothermal titration calorimetry, binding of EX527 to wild type SIRT5; details: ITC, either in the absence or the presence of NAD^+ (10 mM)
# T7 construct: SIRT1 (193–747) and SIRT5 (51–301) were cloned into the pLIC-His expression vector; His tag (pLIC-His vector); made in house; host or cells: E. coli BL21(DE3) Star
# T7 sequence (Q9NXA8 51-301): T1 sequence (Q9NXA8 51-301)
# [12] = target: T5, SIRT1; test: SIRT1 desuccinylation reaction, trypsin coupled assay with Ac-SucLys-AMC; type: biochemical; details: succinyl substrate
# Description: as §5
# [13] = test system: SIRT5; design: method as in PMID 22583019; details: same succinylated substrate, fixed substrate concentration; read-out: Km,NAD (apparent); cited from earlier work
# [14] = deacetylation, acetylated substrate, at 800 μM nicotinamide
# [15] = deacetylation, against NAD^+, 500 μM Fluo-de-lys, NAD^+ 200 to 1300 μM
# [16] = deacetylation, against NAD^+, 100 μM Fluo-de-lys, NAD^+ 40 to 300 μM
# [17] = desuccinylation, succinyl substrate
structure (smiles),measurement,setting,value
NC(=O)c1cccnc1 [Nicotinamide],Inhibition Mode,"[1]; desuccinylation, against NAD^+, 100 μM Ac-SucLys-AMC, NAD^+ 40 to 300 μM",Competitive
same,% inhibition,[2]; [14],"N/A, 36% inhibition at 800μM"
same,inhibition at 800 µM,[2]; [14],~36%
same,Inhibition Mode,"[3]; desuccinylation, against NAD^+, 500 μM Ac-SucLys-AMC, NAD^+ 70 to 800 μM",Competitive
same,inhibition at 800 µM,[4],40%
same,Inhibition Mode,[5]; [15],Mixed
same,Ki’ (mixed inhibition),[5]; [15],0.2672 ± 0.0524 mM
same,Inhibition Mode,[6]; [16],Mixed
same,Ki’ (mixed inhibition),[6]; [16],0.3405 ± 0.1024 mM
same,Ka,[7],(2.5 ± 0.3) × 10^4 M^-1
"NC(=O)C1CCCc2c1[nH]c1ccc(Cl)cc21 (centres unmarked) [EX527, 6-chloro-2,3,4,9-tetrahydro-1H-carbazole-1-carboxamide]",inhibition by EX527,[8],not inhibited
same,inhibition at 50 µM,[2],~14%
same,inhibition by EX527,"[3]; 50 μM EX527, succinylated substrate",no inhibition
same,inhibition at 50 µM,[4],~22%
same,inhibition at 50 µM,[9],~22%
same,IC50,[5],0.0217 ± 0.001 mM
same,binding,[10]; in the absence of NAD^+,binds weakly
same,ΔH°,"[10]; presence of 10 mM NAD^+, pH 7.5, 25°C",-5.3 ± 0.1 kcal/mol
same,stoichiometry n,"[10]; presence of 10 mM NAD^+, pH 7.5, 25°C, single site binding model",1.2
same,ΔG° of binding,"[10]; presence of 10 mM NAD^+, calculated from Ka",-7.3 ± 0.1 kcal/mol
same,TΔS°,"[10]; presence of 10 mM NAD^+, calculated from ΔH° and ΔG°",2.03 kcal/mol
same,binding (heat signals),[11],only miniscule heat signals
CC(=O)N[C@@H](CCCCNC(=O)CCC(=O)O)C(=O)Nc1ccc2c(C)cc(=O)oc2c1 [Ac-SucLys-AMC],kcat,[1]; [17],383.2 ± 38.3 ×10^−5 s^-1
same,Km,"[1]; desuccinylation, succinyl substrate, 25°C, pH 8.0, read-out: Km,sub",290 ± 29 µM
same,kcat,[3]; [17],27.4 ± 4.9 ×10^−5 s^-1
same,Km,"[3]; desuccinylation, succinyl substrate, read-out: Km,sub",300 ± 54 µM
same,desuccinylase activity,[12],no detectable desuccinylase activity
"NC(=O)c1ccc[n+]([C@@H]2O[C@H](COP(=O)([O-])OP(=O)(O)OC[C@H]3O[C@@H](n4cnc5c(N)ncnc54)[C@H](O)[C@@H]3O)[C@@H](O)[C@H]2O)c1 [NAD, nicotinamide adenine dinucleotide]",Km,[13],150 ± 45 µM
NC(=O)c1ccncc1 [isonicotinamide],IC50,[1]; in the presence of 50 μM NAD^+,11.1 ± 2.2 mM
same,IC50,[1]; in the presence of 5 mM NAD^+,17.1 ± 4 mM
same,IC50,[6]; in the presence of 50 μM NAD^+,7 ± 2.9 mM
same,IC50,[6]; in the presence of 5 mM NAD^+,8.9 ± 3.3 mM
